Source: patent US12509431B2, “1,4-dihydroquinazolinone compounds and uses thereof” (Edgewise Therapeutics, Inc., priority 2022, dated 2025)

What was measured:
Format in all cases: biochemical
[1] = target: T1, Porcine Ventricle myofibrils (left ventricle of Yucatan minipigs) (Sus scrofa, UniProt P79293); assay: Myofibril ATPase assay (PK/LDH NADH-coupled), ventricle myofibrils
T1 construct: Myofibrils from porcine cardiac muscle was isolated from the left ventricle of Yucatan minipigs; tissue Exemplar Genetics; host or cells: left ventricle of Yucatan minipigs
T1 sequence (P79293 whole entry): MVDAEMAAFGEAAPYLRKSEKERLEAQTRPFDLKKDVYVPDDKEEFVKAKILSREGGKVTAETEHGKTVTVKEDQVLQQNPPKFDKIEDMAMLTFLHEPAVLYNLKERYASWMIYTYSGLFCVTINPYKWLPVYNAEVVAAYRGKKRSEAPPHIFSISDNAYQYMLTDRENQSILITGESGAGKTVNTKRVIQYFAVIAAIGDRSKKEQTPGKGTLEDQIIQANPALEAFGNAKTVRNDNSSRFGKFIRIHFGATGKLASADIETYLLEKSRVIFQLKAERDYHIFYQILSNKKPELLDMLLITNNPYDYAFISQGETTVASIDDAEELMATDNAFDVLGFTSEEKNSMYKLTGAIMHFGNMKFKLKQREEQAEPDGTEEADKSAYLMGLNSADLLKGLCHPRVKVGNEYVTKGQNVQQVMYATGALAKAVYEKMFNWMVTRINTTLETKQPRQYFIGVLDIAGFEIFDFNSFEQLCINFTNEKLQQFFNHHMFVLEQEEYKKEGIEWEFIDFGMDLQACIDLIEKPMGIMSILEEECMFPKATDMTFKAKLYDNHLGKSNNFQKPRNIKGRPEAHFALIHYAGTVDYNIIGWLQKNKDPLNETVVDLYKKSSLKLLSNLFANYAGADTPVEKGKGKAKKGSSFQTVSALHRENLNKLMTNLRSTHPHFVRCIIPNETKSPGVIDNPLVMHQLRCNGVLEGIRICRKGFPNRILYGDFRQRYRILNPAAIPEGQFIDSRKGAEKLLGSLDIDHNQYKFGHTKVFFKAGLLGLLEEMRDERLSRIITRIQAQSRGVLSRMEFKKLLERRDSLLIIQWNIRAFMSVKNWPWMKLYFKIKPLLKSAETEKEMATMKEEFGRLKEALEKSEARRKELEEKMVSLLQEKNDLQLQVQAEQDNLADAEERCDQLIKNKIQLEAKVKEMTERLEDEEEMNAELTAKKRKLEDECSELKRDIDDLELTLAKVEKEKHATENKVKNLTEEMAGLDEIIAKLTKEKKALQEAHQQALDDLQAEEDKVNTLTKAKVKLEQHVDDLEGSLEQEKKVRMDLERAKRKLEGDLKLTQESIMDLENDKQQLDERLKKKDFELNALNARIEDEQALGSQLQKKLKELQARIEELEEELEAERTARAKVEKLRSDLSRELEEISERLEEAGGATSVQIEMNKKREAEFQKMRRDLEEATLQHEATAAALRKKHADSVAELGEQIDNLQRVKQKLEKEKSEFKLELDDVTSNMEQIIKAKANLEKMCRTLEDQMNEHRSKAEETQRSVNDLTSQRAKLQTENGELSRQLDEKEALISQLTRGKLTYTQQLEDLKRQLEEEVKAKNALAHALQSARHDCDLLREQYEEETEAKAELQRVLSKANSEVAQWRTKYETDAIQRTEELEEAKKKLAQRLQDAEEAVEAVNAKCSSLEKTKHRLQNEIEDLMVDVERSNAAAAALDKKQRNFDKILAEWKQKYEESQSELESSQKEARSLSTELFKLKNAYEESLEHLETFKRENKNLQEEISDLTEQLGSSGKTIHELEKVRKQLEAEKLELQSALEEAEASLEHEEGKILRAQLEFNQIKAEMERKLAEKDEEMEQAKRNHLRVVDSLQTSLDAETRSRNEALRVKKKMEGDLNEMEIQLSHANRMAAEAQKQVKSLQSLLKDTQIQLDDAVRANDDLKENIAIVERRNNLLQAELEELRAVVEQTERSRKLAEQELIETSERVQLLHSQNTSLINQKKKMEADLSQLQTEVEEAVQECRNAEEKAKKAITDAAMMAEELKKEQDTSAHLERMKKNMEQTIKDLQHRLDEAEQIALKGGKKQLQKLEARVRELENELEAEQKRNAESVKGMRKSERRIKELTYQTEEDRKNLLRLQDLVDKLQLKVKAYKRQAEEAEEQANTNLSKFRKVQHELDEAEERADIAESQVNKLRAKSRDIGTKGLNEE
How it was run: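 Yucatan minipig left-ventricle myofibrils; ATPase measured by PK/LDH-coupled NADH loss at 340 nm, read every 1.5-2 min for 75 min. Slopes normalized to vehicle (100%) and fit to 4-parameter logistic model; EC25 and, for inhibitors, EC50 calculated.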

myosin+native RLC = target: T2, myosin+native RLC (Sus scrofa, UniProt P79293); assay: NADH-coupled actin-activated ATPase assay, myosin + native RLC; details: 1 μM myosin, rabbit skeletal actin, 25° C., 1% DMSO
T2 construct: Full-length myosin was resuspended to 1 mg/mL
T2 sequence (P79293 whole entry): as above
Protocol: Full-length myosin was resuspended to 1 mg/mL in a buffer containing 500 mM KCl, 10 mM KPi, 15 mM CDTA, pH 8.5. Triton-X was then added to a final concentration of […], and the suspension was agitated for 15 minutes at room temperature to selectively remove the regulatory light chain (RLC). RLC-removed myosin was then precipitated and collected and resuspended in a buffer containing 400 mM KCl, 50 mM Mops, pH 7, 2 mM MgCl2, and 1 mM DTT. Recombinantly expressed and purified human ventricle RLC was added in a 3-fold molar excess to myosin and incubated on ice for 2 hours to allow for reassociation of the RLC onto myosin. Triton (0.1%) was added to the reaction to prevent any non-specific binding events. RLC-exchanged myosin was then precipitated and collected and resuspended in a buffer containing 12 mM PIPES, pH 6.8, […], 2 mM MgCl2, and 1 mM DTT. RLC removal and exchange were confirmed by SDS-PAGE and proteins were visualized using coomassie stain.
Myosin was resuspended in buffer A (f.c.=12 mM PIPES, pH 6.8, 30 mM KCl, 2 mM MgCl2, 1 mM DTT, 0.1 mg/mL BSA, 0.01% (v/v) Antifoam 204, and 0.6% (v/v) PK/LDH (final reaction contains ≥3.6 U/mL PK and >5.4 U/mL LDH)) at final concentrations of 1 μM for myosin+native RLC and 2 μM for myosin+removed RLC and myosin+human ventricle RLC. Buffer A was then mixed with an equal volume of buffer B (f.c.=12 mM PIPES, pH 6.8, 30 mM KCl, 2 mM MgCl2, 1 mM DTT, 0.1 mg/mL BSA, 0.01% (v/v) Antifoam 204, 0.5 mM NADH, 1.5 mM phosphoenolpyruvate, 1 mM ATP, and 0.3 mg/mL filamentous rabbit skeletal actin) in a 384-well plate. Dose-dependent compound effects were assessed by adding the compounds at varying concentrations between 100 μM and 2 nM, all with a constant final DMSO concentration of 1% v/v. The reactions were run at a constant temperature of 25° C. in the plate reader to monitor the change in A340 over time. Measurements were taken every 90 sec for 75 min to generate raw time-domain absorbance data, which was processed to normalized reaction rates. Normalized enzymatic rates were calculated, using rates observed in 1% (v/v) in DMSO as 100% and 0 slope as 0%. Compound-specific activity curves were generated by plotting the normalized rates versus compound concentration and fitting the data to a 4-parameter logistic model. In addition to the fit parameters, the IC25% was calculated, relative to the 100% normalized value.

Porcine Atria myofibrils = assay: Myofibril ATPase assay (PK/LDH NADH-coupled), atria myofibrils
How it was run: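 Porcine atrial myofibril ATPase followed via PK/LDH-coupled NADH depletion, absorbance at 340 nm read every 1.5-2 min over 75 min. Slopes (mAU/min) normalized to vehicle as 100% and fit to a 4-parameter logistic; EC25% derived, plus EC50% for inhibitors.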

Compound	Porcine Ventricle IC25 ([1]; Table 8)	Potency, Full-length myosin + native porcine ventricle RLC (myosin+native RLC)	Porcine Atria IC25 (Porcine Atria myofibrils; Table 8)	Porcine Ventricle IC25 ([1]; Table 7)	Porcine Atria IC25 (Porcine Atria myofibrils; Table 7)
N#Cc1cnc2c(c1)OCC2NC(=O)CN1Cc2c(ccc(F)c2F)NC1=O (single isomer, unassigned) [Compound B65]	166.7 nM	550 nM	60 nM	–	–
CC(NC(=O)CN1Cc2cc(F)ccc2NC1=O)c1ccc(C#N)cc1F (single isomer, unassigned) [Compound B206]	47.69 nM	970 nM	30 nM	–	–
C[C@@H](NC(=O)CN1Cc2c(ccc(F)c2F)NC1=O)c1ncc(C#N)cc1F [Compound B141, (R)—N-(1-(5-cyano-3-fluoropyridin-2-yl)ethyl)-2-(5,6-difluoro-2-oxo-1,4-dihydroquinazolin-3(2H)-yl)acetamide]	3094 nM	15480 nM	130 nM	–	–
O=C(CN1Cc2cc(F)ccc2NC1=O)N[C@@H]1COc2cc(F)cc(F)c21 [Compound B145]	51.2 nM	1190 nM	20 nM	–	–
O=C(CN1Cc2c(ccc(F)c2F)NC1=O)N[C@@H]1COc2cc(F)cc(F)c21 [Compound B147]	77.66 nM	630 nM	50 nM	–	–
C[C@H](NC(=O)CN1Cc2c(ccc(F)c2F)NC1=O)c1ccc(C#N)cc1F [Compound B189]	77.43 nM	390 nM	30 nM	–	–
C[C@H](NC(=O)CN1Cc2c(ccc(F)c2F)NC1=O)c1ncc(F)cc1F [Compound B191]	191.3 nM	450 nM	40 nM	–	–
C[C@H](NC(=O)CN1Cc2cc(F)ccc2NC1=O)c1ncc(C#N)cc1F [Compound B199]	569.3 nM	560 nM	90 nM	–	–
C[C@H](NC(=O)CN1Cc2cc(F)ccc2NC1=O)c1ccc(F)cc1F [Compound B247, N-[(1S)-1-(2,4-Difluorophenyl)ethyl]-2-(6-fluoro-2-oxo-1,4-dihydroquinazolin-3-yl)acetamide]	296.8 nM	970 nM	60 nM	–	–
O=C(CN1C(=O)Nc2cccnc2C12CC2)N[C@@H]1COc2cc(F)cc(F)c21 [Compound N33]	–	400 nM	–	283.2 nM	80 nM
